Test results: US20030216426A1 (REGENTS OF THE UNIVERSITY OF CALIFORNIA, priority 2002, published 2003)
Structures can show the parent of a compound that is named as a salt. Values belong to the compound of their own block, whether it stands above or below them.

Columns and labels:
[1] = tested on: myeloma cell lines RPM18226; experiment: Apoptosis induction in myeloma cell line; type: cell-based; details: RPM18226 myeloma cells
MCF7 = experiment: MTT cell viability assay, MCF7; type: cell-based; details: Homo sapiens, Breast, 72 hours exposure
Protocol: (§1) After 72 hours exposure, the viability of the cells was determined by the rate of conversion of the formazan salt measuring the optical density (OD) at 570 nm (MTT assay).

MDA-231 = experiment: MTT cell viability assay, MDA-231; type: cell-based; details: Homo sapiens, MDA-MB-231, Breast, 72 hours exposure
Protocol: as §1

HCT-116 = experiment: MTT cell viability assay, HCT-116; type: cell-based; details: Homo sapiens, Colon, 72 hours exposure
Protocol: as §1

LNCap = experiment: MTT cell viability assay, LNCap; type: cell-based; details: Homo sapiens, Prostate, 72 hours exposure
Protocol: as §1

SU-DHL1 = experiment: MTT cell viability assay, SU-DHL1; type: cell-based; details: Homo sapiens, SU-DHL-1, Lymphoma, 72 hours exposure
Protocol: as §1

SU-DHL9 = experiment: MTT cell viability assay, SU-DHL9; type: cell-based; details: Lymphoma, 72 hours exposure
Protocol: as §1

10C9 = experiment: MTT cell viability assay, 10C9; type: cell-based; details: Lymphoma, 72 hours exposure
Protocol: as §1

RAJI = experiment: MTT cell viability assay, RAJI; type: cell-based; details: Homo sapiens, Lymphoma, 72 hours exposure
Protocol: as §1

RPMI8226 = experiment: MTT cell viability assay, RPMI8226; type: cell-based; details: Homo sapiens, RPMI-8226, Myeloma, 72 hours exposure
Protocol: as §1

U266 = experiment: MTT cell viability assay, U266; type: cell-based; details: Homo sapiens, U-266, Myeloma, 72 hours exposure
Protocol: as §1

[2] = tested on: Chronic lymphocytic leukemia cells (CLL); experiment: Viability/apoptosis of CLL cells by dye exclusion and flow cytometric analysis; type: cell-based, human; details: 10 μM, 48 hours exposure, CLL cells of two patients
Protocol: (§2) After 48 hours exposure, the number of viable cells was determined by dye exclusion and flow cytometric analysis.

[3] = tested on: control normal lymphocytes (PBL); experiment: Viability/apoptosis of control normal lymphocytes by dye exclusion and flow cytometric analysis; type: cell-based, human; details: 10 μM, 48 hours exposure, PBL of a healthy volunteer
Protocol: as §2

CLL cells = details: not feasible in vivo due to toxicity; cited from earlier work
[4] = tested on: peripheral blood T lymphocytes; details: cited from earlier work
[5] = cited from earlier work
[6] = cited from earlier work; remark: listed apart in the source
[7] = in vivo; cited from earlier work

IC50 [1]: 10 to 20 µM | IC50 (MCF7): 10 µM | IC50 (HCT-116): 6 µM | IC50 (LNCap): 12 µM | IC50 (SU-DHL1): 8 µM | IC50 (SU-DHL9): 7 µM | IC50 (RAJI): 12 µM | IC50 (RPMI8226): 8 µM | IC50 (U266): 11 µM
SMILES: O[C@H](c1cc(C(F)(F)F)nc2c(C(F)(F)F)cccc12)[C@@H]1CCCCN1 (racemic) [(+/−) Mefloquine, (R*, S*)-(±)-alpha-2-piperidinyl-2,8-bis (trifluoromethyl)-4-quinolinemethanol]
IC50 (MDA-231): 20 µM | IC50 (10C9): 9 µM

SMILES: O[C@H](c1cc(C(F)(F)F)nc2c(C(F)(F)F)cccc12)[C@@H]1CCCCN1 (relative stereo) [(+/−) Mefloquine, (R*, S*)-(±)-alpha-2-piperidinyl-2,8-bis (trifluoromethyl)-4-quinolinemethanol]
induction of apoptosis in CLL cells [2]: potent apoptosis | induction of apoptosis in normal lymphocytes [3]: not against normal lymphocytes

SMILES: CCN(CCO)CCCC(C)Nc1ccnc2cc(Cl)ccc12 (stereo not shown) [Hydroxychloroquine, hydroxychloroquine]
concentration active against CLL cells (CLL cells): ≥ 30 µg/mL | induction of apoptosis in peripheral blood T lymphocytes [4]: induce apoptosis

SMILES: OC(c1cc(C(F)(F)F)nc2c(C(F)(F)F)cccc12)C1CCCCN1 (stereo not shown) [Mefloquine hydrochloride]
solubility in ethanol ([5]; ethanol): soluble in ethanol | solubility in water ([5]; water): slightly soluble in water

SMILES: O=C(O)c1cc(C(F)(F)F)nc2c(C(F)(F)F)cccc12 [Metabolite, 2,8-bis-trifluoromethyl-4-quinoline carboxylic acid]
Mean (SD) trough concentration, Plasma ([6]; healthy volunteers, 250 mg once weekly for 16 weeks, steady state at week 16, plasma): 9.80 (5.07) μmol · 1^−1 | Mean (SD) trough concentration, Serum ([6]; healthy volunteers, 250 mg once weekly for 16 weeks, steady state at week 16, serum): 9.44 (5.00) μmol · 1^−1 | Mean (SD) trough concentration, Whole Blood ([6]; healthy volunteers, 250 mg once weekly for 16 weeks, steady state at week 16, whole blood): 4.89 (2.58) μmol · 1^−1 | accumulation in the plasma ([6]; plasma, text statement referring to Table 1): up to 10 μM | passage of the blood brain barrier / accumulation in the brain [7]: will not penetrate the brain barrier
